Read-outs that look alike come from different tables or passages of the source.
Assays:
Type in all cases: cell-based
[1] = system: intracellular amastigote forms of T. cruzi (Y strain) in LLCMK2 cells; assay: Activity against intracellular amastigote forms in LLCMK2 cells (survival index, Combination Index method); details: Trypanosoma cruzi
Method: All of the experiments were performed using the Y strain of T. cruzi. Pereira et al., Folia Clin. Biol. 1953, 20, 191-208. Epimastigote forms were axenically maintained at 28° C. with weekly transfers in liver infusion tryptose (LIT) medium supplemented with 10% heat-inactivated FBS, pH 7.4. Camargo, Rev. Inst. Med. Trop. São Paulo. 1964, 6, 93-100. Trypomastigote and amastigote forms were obtained from the previously infected monolayers of LLCMK2 cells (epithelial cells of monkey kidney [Macaca mulatta]; CCL-7; American Type Culture Collection, Rockville, MD, USA) in DMEM supplemented with 2 mM L-glutamine and 10% FBS, buffered with sodium bicarbonate in a 5% CO2 air mixture at 37° C. […] The number of infected cells and amastigotes was determined by randomly counting 200 cells. The results were calculated as the survival index, which was obtained by multiplying the percentage of infected cells by the number of amastigotes per infected LLCMK2 cell and then determining the percentage of inhibition. […] The data were calculated and mathematically expressed as a Combination Index: CI=(IC50 VK3 combined/IC50 VK3 alone)+(IC50 VC combined/IC50 VC alone) for epimastigotes and amastigotes and CI=(EC50 VK3 combined/EC50 VK3 alone)+(EC50 VC combined/EC50 VC alone) for trypomastigotes. […]

[2] = system: Epimastigote forms of T. cruzi (Y strain); assay: Trypanocidal effect on epimastigote forms (counting in Neubauer hemocytometer, Combination Index method); details: Trypanosoma cruzi
Method: (§1) All of the experiments were performed using the Y strain of T. cruzi. Pereira et al., Folia Clin. Biol. 1953, 20, 191-208. Epimastigote forms were axenically maintained at 28° C. with weekly transfers in liver infusion tryptose (LIT) medium supplemented with 10% heat-inactivated FBS, pH 7.4. Camargo, Rev. Inst. Med. Trop. São Paulo. 1964, 6, 93-100. Trypomastigote and amastigote forms were obtained from the previously infected monolayers of LLCMK2 cells (epithelial cells of monkey kidney [Macaca mulatta]; CCL-7; American Type Culture Collection, Rockville, MD, USA) in DMEM supplemented with 2 mM L-glutamine and 10% FBS, buffered with sodium bicarbonate in a 5% CO2 air mixture at 37° C. […] The number of epimastigote forms was determined by counting in a Neubauer hemocytometer after 96 hrs. The data were calculated and mathematically expressed as a Combination Index: CI=(IC50 VK3 combined/IC50 VK3 alone)+(IC50 VC combined/IC50 VC alone) for epimastigotes and amastigotes and CI=(EC50 VK3 combined/EC50 VK3 alone)+(EC50 VC combined/EC50 VC alone) for trypomastigotes. […] The data were also graphically expressed as isobolograms by plotting concentrations of vitamins that alone or in combination induced activity against 50% of the forms of the parasite.

[3] = system: Trypomastigote forms of T. cruzi (Y strain); assay: Trypanocidal effect on trypomastigote forms (viability by mobility, Pizzi-Brener method, Combination Index method); details: Trypanosoma cruzi
Method: as §1, with “After incubation, the viability” for “The number”, “the parasites” for “epimastigote forms”, “examining mobility under” for “counting in”, “light microscope (Olympus CX31) using the Pizzi-Brener method. […]” for “Neubauer hemocytometer after 96 hrs.”

[4] = system: parasitic forms of Trypanosoma cruzi; assay: Total ROS production (H2DCFDA labeling); details: H2O2 20.0 μM
Method: FIGS. 2A, 2B, and 2C show the effects of VC and VK3 on the total reactive oxygen species (ROS) production in parasitic forms of Trypanosoma cruzi, where the parasites were treated with VC and VK3, alone and combined, for 24 hrs using H2DCFDA labeling; and where epimastigote forms (FIG. 2A) were treated with 0.61 mM VC and 1.90 μM VK3, alone and combined; trypomastigote forms (FIG. 2B) were treated with 0.20 mM VC and 0.35 μM VK3, alone and combined; and amastigote forms (FIG. 2C) were treated with 0.18 mM VC and 0.30 μM VK3, alone and combined. H2O2 was used as a positive control. Total ROS were measured as an increase in fluorescence that is caused by the conversion of nonfluorescent dye to fluorescent DCF. The results are expressed as the mean fluorescence (in arbitrary units [A.U.]±SE) of at least three independent experiments. The symbol * indicates significant differences compared with the control group (untreated cells; p≤0.05). The production of total reactive oxygen species (total ROS) was evaluated in parasitic forms after exposure to VC and VK3 using the probe H2DCFDA. Epimastigote forms (1×10^6 parasites/mL) were evaluated after exposure to 0.61 mM VC and 1.90 μM VK3, alone and in combination, for 24 hrs at 28° C. Trypomastigote forms (1×10^7 parasites/mL) were evaluated after exposure to 0.20 mM VC and 0.35 μM VK3, alone and in combination, for 24 hrs at 37° C. in a 5% CO2 atmosphere. Amastigote forms (1×10^7 parasites/mL) were evaluated after exposure to 0.18 mM VC and 0.30 μM VK3, alone and in combination, for 24 hrs at 37° C. in a 5% CO2 atmosphere. Hydrogen peroxide (H2O2; 20.0 μM) was used as a positive control. Afterward, the parasites were centrifuged, washed, and resuspended in PBS. Parasites were loaded with 10.0 μM of the permeant probe H2DCFDA in the dark for 45 min.

For O=C1O[C@H]([C@@H](O)CO)C(O)=C1O [VC, L-ascorbic acid], which IC50 ([1]; LLC-MK2, combined with 0.30 μM VK3, read-out: VC concentration in the combination with synergistic effect on 50% of the parasites (IC50 VC combined)) is on record?
The IC50 was 180 µM.

What about the IC50 ([2]; combined with 1.90 μM VK3, read-out: VC concentration in the combination with synergistic effect on 50% of the parasites (IC50 VC combined)) of the same compound?
The IC50 was 610 µM.

What about the EC50 ([3]; combined with 0.35 μM VK3, read-out: VC concentration in the combination with synergistic effect on 50% of the parasites (EC50 VC combined)) of the same compound?
Its EC50 is 200 µM.

For CC1=CC(=O)c2ccccc2C1=O [VK3, 2-methyl-1,4-naphthalenedione], which IC50 ([1]; LLC-MK2, combined with 0.18 mM VC, read-out: VK3 concentration in the combination with synergistic effect on 50% of the parasites (IC50 VK3 combined)) is on record?
Its IC50 is 0.3 µM.

And the IC50 ([2]; .61 mM VC, read-out: VK3 concentration in the combination with synergistic effect on 50% of the parasites (IC50 VK3 combined))?
The IC50 was 1.9 µM.

What about the EC50 ([3]; combined with 0.20 mM VC, read-out: VK3 concentration in the combination with synergistic effect on 50% of the parasites (EC50 VK3 combined)) of the same compound?
The EC50 was 0.35 µM.

Which “increase in ROS production (positive control)” value (shortened to “increase in ROS production”) ([4]; amastigotes) does the source give for OO [H2O2, Hydrogen peroxide] here?
The value was 60%.

And the “increase in ROS production” value ([4]; epimastigotes)?
Its value is 69%.

What about the “increase in ROS production” value ([4]; trypomastigotes) of the same compound?
Its value is 77%.
